From patent publication US12611453B2, “Method of inducing an HIV-1-specific immune response using a chimpanzee adenovirus vector encoding an hivacat t-cell immunogen and TLR7 agonist” (Gilead Sciences, Inc., priority 2019, dated 2026)

Tests used:
Type in all cases: in vitro ADME
[1] = target: cytochrome P450 (CYP) 3A4 enzyme (CYP3A) (Homo sapiens, UniProt P08684); test: in vitro metabolism by cytochrome P450 3A4
Text: (§1) Any ART agents known to inhibit or induce CYP3A, P-glycoprotein, or breast cancer resistance protein are excluded from use in this study during treatment (Period 1). For those participants who may be on a regimen including one of these medications, a regimen switch from one of the prohibited medication to an allowed medication is permitted between the screening and baseline visits. The following agents are excluded from the ART regimen during the study: HIV protease inhibitors (including low-dose ritonavir), cobicistat-containing regimens, elvitegravir, efavirenz, etravirine, and nevirapine.

[2] = target: T1, CYP2C8 (Homo sapiens, UniProt P10632); test: in vitro metabolism by CYP2C8
T1 sequence (P10632 1-490): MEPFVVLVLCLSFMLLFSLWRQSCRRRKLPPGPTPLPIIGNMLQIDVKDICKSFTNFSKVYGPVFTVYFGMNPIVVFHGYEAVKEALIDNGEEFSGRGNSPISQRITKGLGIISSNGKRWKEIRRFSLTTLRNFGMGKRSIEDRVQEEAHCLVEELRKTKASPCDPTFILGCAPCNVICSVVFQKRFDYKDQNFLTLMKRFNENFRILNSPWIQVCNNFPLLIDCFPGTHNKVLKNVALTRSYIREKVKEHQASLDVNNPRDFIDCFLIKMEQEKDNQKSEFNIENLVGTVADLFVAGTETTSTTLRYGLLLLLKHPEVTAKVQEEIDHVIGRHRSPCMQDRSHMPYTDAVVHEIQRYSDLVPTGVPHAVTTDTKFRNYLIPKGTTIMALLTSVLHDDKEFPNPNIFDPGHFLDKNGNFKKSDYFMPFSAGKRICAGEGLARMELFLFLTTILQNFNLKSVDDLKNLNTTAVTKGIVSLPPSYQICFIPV
Text: as §1

[3] = target: CYP2D6 (Homo sapiens, UniProt P10635); test: in vitro metabolism by CYP2D6
[4] = target: P-glycoprotein (Homo sapiens, UniProt P08183); test: in vitro P-glycoprotein substrate assessment
Text: as §1

[5] = target: T2, breast cancer resistance protein (Homo sapiens, UniProt Q9UNQ0); test: in vitro breast cancer resistance protein substrate assessment
T2 sequence (Q9UNQ0 1-655): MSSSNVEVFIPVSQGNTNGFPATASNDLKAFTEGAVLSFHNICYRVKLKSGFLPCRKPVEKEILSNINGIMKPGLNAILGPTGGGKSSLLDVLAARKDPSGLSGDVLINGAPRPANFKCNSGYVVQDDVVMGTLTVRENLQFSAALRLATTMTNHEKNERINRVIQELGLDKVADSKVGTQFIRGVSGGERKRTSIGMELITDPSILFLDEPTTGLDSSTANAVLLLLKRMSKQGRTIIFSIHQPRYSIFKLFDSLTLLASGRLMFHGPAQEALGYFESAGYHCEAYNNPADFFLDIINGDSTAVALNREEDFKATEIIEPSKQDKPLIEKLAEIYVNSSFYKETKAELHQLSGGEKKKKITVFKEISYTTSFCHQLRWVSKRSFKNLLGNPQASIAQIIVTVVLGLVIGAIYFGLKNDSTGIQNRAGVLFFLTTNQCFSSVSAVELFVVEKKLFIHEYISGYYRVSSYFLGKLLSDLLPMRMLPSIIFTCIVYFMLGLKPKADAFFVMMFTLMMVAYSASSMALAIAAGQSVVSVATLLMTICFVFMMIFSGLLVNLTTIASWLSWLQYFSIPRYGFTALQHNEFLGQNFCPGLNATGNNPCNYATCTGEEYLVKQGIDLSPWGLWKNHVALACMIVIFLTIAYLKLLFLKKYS
Text: as §1

Chain of CYP2D6 (P10635 whole entry): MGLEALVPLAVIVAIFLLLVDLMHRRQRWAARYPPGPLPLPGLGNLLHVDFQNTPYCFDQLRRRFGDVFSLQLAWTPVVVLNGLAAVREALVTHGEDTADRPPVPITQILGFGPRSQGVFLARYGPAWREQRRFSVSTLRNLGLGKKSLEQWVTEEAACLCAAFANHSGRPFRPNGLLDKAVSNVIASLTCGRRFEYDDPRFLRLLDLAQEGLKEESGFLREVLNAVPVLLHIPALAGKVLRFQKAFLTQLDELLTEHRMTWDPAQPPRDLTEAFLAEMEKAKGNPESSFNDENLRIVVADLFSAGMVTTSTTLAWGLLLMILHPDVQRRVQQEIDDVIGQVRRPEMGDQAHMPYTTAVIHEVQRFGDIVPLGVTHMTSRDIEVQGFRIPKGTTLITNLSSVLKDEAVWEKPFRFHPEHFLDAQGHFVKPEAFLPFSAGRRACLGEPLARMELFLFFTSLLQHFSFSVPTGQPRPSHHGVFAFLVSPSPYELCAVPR
Chain of P-glycoprotein (P08183 whole entry): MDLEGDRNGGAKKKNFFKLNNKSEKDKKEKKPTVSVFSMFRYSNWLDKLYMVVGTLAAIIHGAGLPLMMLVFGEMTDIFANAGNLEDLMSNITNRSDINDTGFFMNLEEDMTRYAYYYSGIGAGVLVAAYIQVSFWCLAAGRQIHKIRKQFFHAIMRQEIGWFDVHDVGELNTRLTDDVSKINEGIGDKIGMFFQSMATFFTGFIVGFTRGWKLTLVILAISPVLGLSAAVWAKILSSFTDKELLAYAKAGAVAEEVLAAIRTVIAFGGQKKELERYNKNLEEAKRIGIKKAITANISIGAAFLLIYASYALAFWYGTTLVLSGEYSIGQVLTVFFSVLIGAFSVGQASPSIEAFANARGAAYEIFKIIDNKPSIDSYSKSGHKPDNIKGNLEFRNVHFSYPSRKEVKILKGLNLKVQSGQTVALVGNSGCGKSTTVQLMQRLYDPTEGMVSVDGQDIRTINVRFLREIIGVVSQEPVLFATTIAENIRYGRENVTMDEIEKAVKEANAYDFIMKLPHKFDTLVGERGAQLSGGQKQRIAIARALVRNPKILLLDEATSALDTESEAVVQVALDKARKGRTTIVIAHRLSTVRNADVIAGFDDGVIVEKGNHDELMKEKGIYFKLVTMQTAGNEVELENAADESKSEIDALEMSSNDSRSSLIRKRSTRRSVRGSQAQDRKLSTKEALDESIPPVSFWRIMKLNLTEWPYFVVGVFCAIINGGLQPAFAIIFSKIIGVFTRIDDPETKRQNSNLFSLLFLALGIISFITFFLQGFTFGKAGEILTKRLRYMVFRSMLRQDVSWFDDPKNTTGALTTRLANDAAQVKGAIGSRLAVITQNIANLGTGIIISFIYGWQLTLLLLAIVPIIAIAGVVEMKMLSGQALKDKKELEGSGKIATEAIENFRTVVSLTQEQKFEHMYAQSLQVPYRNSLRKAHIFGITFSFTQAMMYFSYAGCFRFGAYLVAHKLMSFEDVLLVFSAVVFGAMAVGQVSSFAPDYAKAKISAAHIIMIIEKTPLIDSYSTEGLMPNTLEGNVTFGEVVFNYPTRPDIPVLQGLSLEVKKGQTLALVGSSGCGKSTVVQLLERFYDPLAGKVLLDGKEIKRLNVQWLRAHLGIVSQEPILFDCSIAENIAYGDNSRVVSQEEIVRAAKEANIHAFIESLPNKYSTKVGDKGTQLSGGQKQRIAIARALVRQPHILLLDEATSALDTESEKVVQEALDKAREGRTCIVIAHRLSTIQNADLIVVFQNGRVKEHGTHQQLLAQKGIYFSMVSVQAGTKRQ
Chain of cytochrome P450 (CYP) 3A4 enzyme (CYP3A) (P08684 whole entry): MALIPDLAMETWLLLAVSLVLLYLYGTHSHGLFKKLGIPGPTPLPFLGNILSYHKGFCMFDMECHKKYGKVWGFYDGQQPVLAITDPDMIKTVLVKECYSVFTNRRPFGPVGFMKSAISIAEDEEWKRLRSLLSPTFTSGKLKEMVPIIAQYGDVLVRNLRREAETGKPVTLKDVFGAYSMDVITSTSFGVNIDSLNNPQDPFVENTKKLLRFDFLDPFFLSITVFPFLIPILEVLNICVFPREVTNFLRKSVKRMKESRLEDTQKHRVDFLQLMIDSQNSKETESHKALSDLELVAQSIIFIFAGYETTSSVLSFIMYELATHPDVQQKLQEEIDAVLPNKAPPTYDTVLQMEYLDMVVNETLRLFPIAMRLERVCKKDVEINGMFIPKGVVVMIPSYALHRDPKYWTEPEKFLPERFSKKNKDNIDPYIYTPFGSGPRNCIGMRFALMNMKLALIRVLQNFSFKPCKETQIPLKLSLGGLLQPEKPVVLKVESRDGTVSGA

metabolism by CYP3A4 (contribution to metabolism) [1]: predominantly metabolized
metabolism by CYP2C8 (contribution to metabolism) [2]: minor contributions
metabolism by CYP2D6 (contribution to metabolism) [3]: minor contributions
substrate of P-glycoprotein [4]: substrate
substrate of breast cancer resistance protein [5]: substrate
Compound: CCCCOc1nc(N)c2c(n1)N(Cc1cccc(CN3CCCC3)c1)CC(=O)N2 [compound of Formula (I)]
